Results: PMC6409085, “Three odorant-binding proteins are involved in the behavioral response of Sogatella furcifera to rice plant volatiles” (PeerJ, 2019)
Where “and” joins values, the source holds several entries; their conditions need not be identical. Equal values may be shown once.

Experiments:
[1] = molecular target: SfurOBP1 (Sogatella furcifera, UniProt V5T8N5); assay: biochemical; assay type: binding; conditions: for Fluorescence competitive binding assay, fluorescence intensity: OBP1, three replicate columns
Procedure, shortened: (§1)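 Fluorescence competitive binding used 2.0 µM SfurOBP and 2.0 µM 1-NPN reporter in 50 mM Tris-HCl, pH 7.4, with odorants at 2-20 µM. Fluorescence was read 2 min after adding the odorant (excitation 337 nm, emission 390-490 nm), in triplicate. Ki was calculated from IC50 as IC50/(1 + [1-NPN]/K1-NPN).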

[2] = molecular target: SfurOBP11 (Sogatella furcifera, UniProt V5T6E3); assay: biochemical; assay type: binding
Procedure, shortened: as §1

[3] = molecular target: SfurOBP2 (Sogatella furcifera, UniProt V5T759); assay: biochemical; assay type: binding
Procedure, shortened: as §1

[4] = molecular target: SfurOBP3 (Sogatella furcifera, UniProt V5T818); assay: biochemical; assay type: binding; conditions: for Fluorescence competitive binding assay, fluorescence intensity: OBP3, three replicate columns
Procedure, shortened: as §1

[5] = test system: S. furcifera adults; assay: Y-tube olfactometer behavioral trials; assay type: in vivo, Sogatella furcifera; conditions: odorant 50 µL/L vs hexane
Procedure, shortened: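 Single S. furcifera adults (2 days post-emergence, starved 0.5 h) chose between odorant (100 µL of 50 µL/L on filter paper) and hexane control in a glass Y-tube, charcoal-filtered humidified air 300 mL/min per arm, 25 ± 1 °C, 50% RH. Choice scored if insect passed half an arm and stayed >1 min within 10 min; 45 insects per compound, chi-squared test.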

Sequence of SfurOBP11 (V5T6E3 entry or part of it): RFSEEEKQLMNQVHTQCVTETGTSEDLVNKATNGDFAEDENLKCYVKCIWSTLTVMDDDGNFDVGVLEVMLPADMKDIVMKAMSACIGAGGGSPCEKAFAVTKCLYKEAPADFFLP
Sequence of SfurOBP3 (V5T818 entry or part of it): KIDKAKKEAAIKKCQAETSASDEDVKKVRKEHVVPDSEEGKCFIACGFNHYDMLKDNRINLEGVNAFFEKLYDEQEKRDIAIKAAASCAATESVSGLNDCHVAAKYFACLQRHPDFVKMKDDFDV
Sequence of SfurOBP2 (V5T759 entry or part of it): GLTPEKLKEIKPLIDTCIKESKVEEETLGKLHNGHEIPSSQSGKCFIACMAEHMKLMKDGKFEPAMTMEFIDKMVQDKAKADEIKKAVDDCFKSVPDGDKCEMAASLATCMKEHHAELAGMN
Sequence of SfurOBP1 (V5T8N5 entry or part of it): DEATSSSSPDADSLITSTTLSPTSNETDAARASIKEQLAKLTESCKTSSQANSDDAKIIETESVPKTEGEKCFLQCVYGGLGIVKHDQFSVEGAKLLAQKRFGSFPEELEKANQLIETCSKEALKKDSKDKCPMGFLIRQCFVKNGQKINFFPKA

- Fluorescence competitive binding assay, fluorescence intensity ([1]; ligand concentration 2 (μM)): 5565 and 5797 and 5680
- Fluorescence competitive binding assay, fluorescence intensity ([1]; ligand concentration 4 (μM)): 6133 and 7369 and 7766
- Fluorescence competitive binding assay, fluorescence intensity ([1]; ligand concentration 6 (μM)): 7319 and 6450 and 6758
- Fluorescence competitive binding assay, fluorescence intensity ([1]; ligand concentration 8 (μM)): 6247 and 6677 and 6608
- Fluorescence competitive binding assay, fluorescence intensity ([1]; ligand concentration 10 (μM)): 5974 and 6580 and 6200
- Fluorescence competitive binding assay, fluorescence intensity ([1]; ligand concentration 12 (μM)): 6115 and 6844 and 6487
- Fluorescence competitive binding assay, fluorescence intensity ([1]; ligand concentration 14 (μM)): 7227 and 6939 and 7296
- Fluorescence competitive binding assay, fluorescence intensity ([1]; ligand concentration 16 (μM)): 7221 and 7791 and 6651
- Fluorescence competitive binding assay, fluorescence intensity ([1]; ligand concentration 18 (μM)): 6902 and 6623 and 6730
- Fluorescence competitive binding assay, fluorescence intensity ([1]; ligand concentration 20 (μM)): 6454 and 6429 and 6479
- IC50 ([1]; SfurOBP1, protein and 1-NPN both 2.0 µM, competitor 2-20 µM, read-out: IC50): > 20 µM
- IC50 ([2]; SfurOBP11, protein and 1-NPN both 2.0 µM, competitor 2-20 µM, read-out: IC50): > 20 µM
- Fluorescence intensity, fluorescence competitive binding assay, OBP11 ([2]; ligand concentration 2, replicate 1): 24306
- Fluorescence intensity, fluorescence competitive binding assay, OBP11 ([2]; ligand concentration 2, replicate 2): 24787
- Fluorescence intensity, fluorescence competitive binding assay, OBP11 ([2]; ligand concentration 2, replicate 3): 25268
- Fluorescence intensity, fluorescence competitive binding assay, OBP11 ([2]; ligand concentration 4, replicate 1): 24848
- Fluorescence intensity, fluorescence competitive binding assay, OBP11 ([2]; ligand concentration 4, replicate 2): 24623
- Fluorescence intensity, fluorescence competitive binding assay, OBP11 ([2]; ligand concentration 4, replicate 3): 25072
- Fluorescence intensity, fluorescence competitive binding assay, OBP11 ([2]; ligand concentration 6, replicate 1): 24984
- Fluorescence intensity, fluorescence competitive binding assay, OBP11 ([2]; ligand concentration 6, replicate 2): 24187
- Fluorescence intensity, fluorescence competitive binding assay, OBP11 ([2]; ligand concentration 6, replicate 3): 25781
- Fluorescence intensity, fluorescence competitive binding assay, OBP11 ([2]; ligand concentration 8, replicate 1): 23438
- Fluorescence intensity, fluorescence competitive binding assay, OBP11 ([2]; ligand concentration 8, replicate 2): 23156
- Fluorescence intensity, fluorescence competitive binding assay, OBP11 ([2]; ligand concentration 8, replicate 3): 23719
- Fluorescence intensity, fluorescence competitive binding assay, OBP11 ([2]; ligand concentration 10, replicate 1): 22448
- Fluorescence intensity, fluorescence competitive binding assay, OBP11 ([2]; ligand concentration 10, replicate 2): 22213
- Fluorescence intensity, fluorescence competitive binding assay, OBP11 ([2]; ligand concentration 10, replicate 3): 22684
- Fluorescence intensity, fluorescence competitive binding assay, OBP11 ([2]; ligand concentration 12, replicate 1): 22134
- Fluorescence intensity, fluorescence competitive binding assay, OBP11 ([2]; ligand concentration 12, replicate 2): 22969
- Fluorescence intensity, fluorescence competitive binding assay, OBP11 ([2]; ligand concentration 12, replicate 3): 22151
- Fluorescence intensity, fluorescence competitive binding assay, OBP11 ([2]; ligand concentration 14, replicate 1): 21048
- Fluorescence intensity, fluorescence competitive binding assay, OBP11 ([2]; ligand concentration 14, replicate 2): 20368
- Fluorescence intensity, fluorescence competitive binding assay, OBP11 ([2]; ligand concentration 14, replicate 3): 20708
- Fluorescence intensity, fluorescence competitive binding assay, OBP11 ([2]; ligand concentration 16, replicate 1): 19801
- Fluorescence intensity, fluorescence competitive binding assay, OBP11 ([2]; ligand concentration 16, replicate 2): 20307
- Fluorescence intensity, fluorescence competitive binding assay, OBP11 ([2]; ligand concentration 16, replicate 3): 20932
- Fluorescence intensity, fluorescence competitive binding assay, OBP11 ([2]; ligand concentration 18, replicate 1): 20181
- Fluorescence intensity, fluorescence competitive binding assay, OBP11 ([2]; ligand concentration 18, replicate 2): 20256
- Fluorescence intensity, fluorescence competitive binding assay, OBP11 ([2]; ligand concentration 18, replicate 3): 20300
- Fluorescence intensity, fluorescence competitive binding assay, OBP11 ([2]; ligand concentration 20, replicate 1): 20105
- Fluorescence intensity, fluorescence competitive binding assay, OBP11 ([2]; ligand concentration 20, replicate 2): 20028
- Fluorescence intensity, fluorescence competitive binding assay, OBP11 ([2]; ligand concentration 20, replicate 3): 20212
- IC50 ([3]; SfurOBP2, protein and 1-NPN both 2.0 µM, competitor 2-20 µM, read-out: IC50): > 20 µM
- Fluorescence competitive binding assay, OBP2 (raw fluorescence reading) ([3]; ligand concentration 2 (unit not given), replicate column 1 of 3): 19792
- Fluorescence competitive binding assay, OBP2 (raw fluorescence reading) ([3]; ligand concentration 2 (unit not given), replicate column 2 of 3): 17859
- Fluorescence competitive binding assay, OBP2 (raw fluorescence reading) ([3]; ligand concentration 2 (unit not given), replicate column 3 of 3): 20079
- Fluorescence competitive binding assay, OBP2 (raw fluorescence reading) ([3]; ligand concentration 4 (unit not given), replicate column 1 of 3): 17338
- Fluorescence competitive binding assay, OBP2 (raw fluorescence reading) ([3]; ligand concentration 4 (unit not given), replicate column 2 of 3): 18012
- Fluorescence competitive binding assay, OBP2 (raw fluorescence reading) ([3]; ligand concentration 4 (unit not given), replicate column 3 of 3): 20388
- Fluorescence competitive binding assay, OBP2 (raw fluorescence reading) ([3]; ligand concentration 6 (unit not given), replicate column 1 of 3): 17013
- Fluorescence competitive binding assay, OBP2 (raw fluorescence reading) ([3]; ligand concentration 6 (unit not given), replicate column 2 of 3): 18530
- Fluorescence competitive binding assay, OBP2 (raw fluorescence reading) ([3]; ligand concentration 6 (unit not given), replicate column 3 of 3): 19352
- Fluorescence competitive binding assay, OBP2 (raw fluorescence reading) ([3]; ligand concentration 8 (unit not given), replicate column 1 of 3): 15771
- Fluorescence competitive binding assay, OBP2 (raw fluorescence reading) ([3]; ligand concentration 8 (unit not given), replicate column 2 of 3): 11853
- Fluorescence competitive binding assay, OBP2 (raw fluorescence reading) ([3]; ligand concentration 8 (unit not given), replicate column 3 of 3): 17932
- Fluorescence competitive binding assay, OBP2 (raw fluorescence reading) ([3]; ligand concentration 10 (unit not given), replicate column 1 of 3): 15741
- Fluorescence competitive binding assay, OBP2 (raw fluorescence reading) ([3]; ligand concentration 10 (unit not given), replicate column 2 of 3): 17236
- Fluorescence competitive binding assay, OBP2 (raw fluorescence reading) ([3]; ligand concentration 10 (unit not given), replicate column 3 of 3): 17972
- Fluorescence competitive binding assay, OBP2 (raw fluorescence reading) ([3]; ligand concentration 12 (unit not given), replicate column 1 of 3): 14577
- Fluorescence competitive binding assay, OBP2 (raw fluorescence reading) ([3]; ligand concentration 12 (unit not given), replicate column 2 of 3): 14468
- Fluorescence competitive binding assay, OBP2 (raw fluorescence reading) ([3]; ligand concentration 12 (unit not given), replicate column 3 of 3): 15583
- Fluorescence competitive binding assay, OBP2 (raw fluorescence reading) ([3]; ligand concentration 14 (unit not given), replicate column 1 of 3): 14055
- Fluorescence competitive binding assay, OBP2 (raw fluorescence reading) ([3]; ligand concentration 14 (unit not given), replicate column 2 of 3): 13126
- Fluorescence competitive binding assay, OBP2 (raw fluorescence reading) ([3]; ligand concentration 14 (unit not given), replicate column 3 of 3): 14409
- Fluorescence competitive binding assay, OBP2 (raw fluorescence reading) ([3]; ligand concentration 16 (unit not given), replicate column 1 of 3): 12777
- Fluorescence competitive binding assay, OBP2 (raw fluorescence reading) ([3]; ligand concentration 16 (unit not given), replicate column 2 of 3): 13653
- Fluorescence competitive binding assay, OBP2 (raw fluorescence reading) ([3]; ligand concentration 16 (unit not given), replicate column 3 of 3): 13817
- Fluorescence competitive binding assay, OBP2 (raw fluorescence reading) ([3]; ligand concentration 18 (unit not given), replicate column 1 of 3): 17551
- Fluorescence competitive binding assay, OBP2 (raw fluorescence reading) ([3]; ligand concentration 18 (unit not given), replicate column 2 of 3): 16085
- Fluorescence competitive binding assay, OBP2 (raw fluorescence reading) ([3]; ligand concentration 18 (unit not given), replicate column 3 of 3): 21813
- Fluorescence competitive binding assay, OBP2 (raw fluorescence reading) ([3]; ligand concentration 20 (unit not given), replicate column 1 of 3): 14165
- Fluorescence competitive binding assay, OBP2 (raw fluorescence reading) ([3]; ligand concentration 20 (unit not given), replicate column 2 of 3): 14167
- Fluorescence competitive binding assay, OBP2 (raw fluorescence reading) ([3]; ligand concentration 20 (unit not given), replicate column 3 of 3): 13571
- Fluorescence competitive binding assay, fluorescence intensity ([4]; ligand concentration 2): 37101 and 37506 and 37304
- Fluorescence competitive binding assay, fluorescence intensity ([4]; ligand concentration 4): 36141 and 37871 and 37816
- Fluorescence competitive binding assay, fluorescence intensity ([4]; ligand concentration 6): 36419 and 39158 and 37789
- Fluorescence competitive binding assay, fluorescence intensity ([4]; ligand concentration 8): 33665 and 34797 and 35932
- Fluorescence competitive binding assay, fluorescence intensity ([4]; ligand concentration 10): 33290 and 35900 and 35256
- Fluorescence competitive binding assay, fluorescence intensity ([4]; ligand concentration 12): 29962 and 33001 and 33859
- Fluorescence competitive binding assay, fluorescence intensity ([4]; ligand concentration 14): 28260 and 30707 and 32190
- Fluorescence competitive binding assay, fluorescence intensity ([4]; ligand concentration 16): 28891 and 29426 and 29159
- Fluorescence competitive binding assay, fluorescence intensity ([4]; ligand concentration 18): 26989 and 27471 and 26506
- Fluorescence competitive binding assay, fluorescence intensity ([4]; ligand concentration 20): 26994 and 26547 and 27440
- binding affinity to SfurOBP3 (in words) ([4]; SfurOBP3): high binding affinities
- IC50 ([4]; SfurOBP3, protein and 1-NPN both 2.0 µM, competitor 2-20 µM, read-out: IC50): 15.5 µM
SMILES: CCCCCC(C)=O [2-heptanone]
- behavioral response of S. furcifera (in words) [5]: strongly attracted
- number of insects choosing hexane arm ([5]; adults): 8
- number of insects choosing volatilies arm ([5]; adults): 21
- number of insects failed (no choice) ([5]; adults): 11
